Laboratory results taken from patent US9981970B2, “Bicyclic ureas and thiadiazolidine-1, 1-dioxides as CETP inhibitors” (Merck Sharp & Dohme Corp., priority 2013, dated 2018).

What was measured:
[1] = biological target: T1, endogenous CETP from serum (Homo sapiens, UniProt P11597); experiment: RTA assay in 95% human serum (in vitro radioactive assay of CETP-catalyzed CE and TG transfer); type: biochemical; conditions: Table 1; data generally obtained using the RTA assay in 95% human serum; read-out: IC50
T1 construct: yielding a concentration of approximately 15 nM endogenous CETP in the assay; from tissue; host or cells: human serum
T1 sequence (P11597 18-493): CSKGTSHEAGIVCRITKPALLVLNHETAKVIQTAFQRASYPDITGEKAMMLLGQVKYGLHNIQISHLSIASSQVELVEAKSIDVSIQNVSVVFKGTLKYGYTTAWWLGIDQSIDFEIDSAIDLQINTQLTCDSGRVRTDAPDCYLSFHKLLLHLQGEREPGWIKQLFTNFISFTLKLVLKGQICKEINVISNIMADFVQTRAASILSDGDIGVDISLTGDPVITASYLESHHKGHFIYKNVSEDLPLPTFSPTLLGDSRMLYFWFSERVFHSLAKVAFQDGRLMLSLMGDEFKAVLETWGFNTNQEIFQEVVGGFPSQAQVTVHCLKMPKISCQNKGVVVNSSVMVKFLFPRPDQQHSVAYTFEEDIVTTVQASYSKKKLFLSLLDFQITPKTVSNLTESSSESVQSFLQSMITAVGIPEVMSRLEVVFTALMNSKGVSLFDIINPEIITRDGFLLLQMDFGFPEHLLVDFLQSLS
Description: In Vitro Radioactive Assays of CETP-Catalyzed CE and TG Transfer (RTA Assay)
Reagents and sources are: [3H] cholesteryl oleate (GE #TRK.886), [3H] Triolein (Perkin-Elmer NET-431), Butylated hydroxyl toluene (Aldrich, #D4740-4), DOPC (Sigma, # P6354), Sodium Bromide (Fisher scientific #S255-500), PEG 8000 (Fisher, #BP233-1), and human HDL (Intracel Corp #RP-036).
Both assays measure the transfer of [3H] cholesteryl oleate or [3H] triolein from exogenous LDL to HDL.
Radiolabeled donor particles are generated by first combining 100 μl of 200 μM butylated hydroxyl toluene in CHCl3, 216 μL of 21.57 mM DOPC in EtOH, and either 500 μCi [3H]-triolein (Perkin Elmer #NET-431) or 500 μCi [3H]-cholesteryl oleate (GE #TRK886) in a glass tube. Reagents are mixed, dried under nitrogen, and then resuspended in 2 mL of 50 mM Tris, 27 μM EDTA at pH 7.4. After a brief vortex, the solution is sonicated until clear and mixed with 20 mL of fresh human serum. The mixture is incubated overnight at 37° C. The [3H] labeled LDL substrate is separated at 1.063 g/ml density by sequential ultracentrifugal flotation in NaBr according to the method of Havel, Eder, et al., 1955, and Chapman, Goldstein, et al., 1981. Once isolated the particles are dialyzed 3× in CETP buffer (50 mM Tris, pH 7.4, 100 mM NaCl, 1 mM EDTA). Human HDL is purchased from Intracel and used as the acceptor particles.
Transfer assays are performed in a 96-well v-bottom polypropylene plate. For the RTA using recombinant CETP (2% RTA), an assay cocktail is prepared with the final concentrations 128 μg/mL HDL, 20 nM rCETP, 2% human serum, and 1×CETP buffer. 1 μL of each test compound diluted in DMSO is added to 47 μL of assay cocktail per well and incubated at 37° C. for 1 hour. To initiate the transfer reaction, 2 μL radiolabeled LDL is added. After an additional 60 min of incubation at 37° C., the transfer action is terminated by precipitation of LDL with an equal volume of 20% WN PEG 8000. The plates are centrifuged at 2000 rpm for 30 minutes at 4° C. A 40 μL aliquot of the HDL-containing supernatant is transferred to a Packard Optiplate™ with 200 μL of MicroScint™ 20. After mixing, plates are counted by liquid scintillation. Counts present in the supernatant for blanks (wells containing only HDL acceptor, CETP buffer and DMSO) are subtracted from those containing test compounds and used to correct for non-specific transfer.
This is then combined with HDL and CETP buffer and the reaction proceeds as above and is terminated as described.
Comparison of the counts of samples with inhibitors to an uninhibited (DMSO only) positive control yield a percent inhibition. A plot of percent inhibition vs. log of inhibitor concentration, fit to a Sigmoidal 4 parameter equation is used to calculate IC50.
Starting materials are commercially available or are made using known procedures or as shown below. The examples may be synthesized according to the general schemes provided below and by using the synthetic intermediates that are described. […] When compounds of Formula I are mentioned herein, such compounds include compounds defined generically by Formula I and also the specific examples disclosed herein.

[2] = patients on anacetrapib with baseline statin therapy compared with patients treated with just a statin; cited from earlier work

| Structure (SMILES) | IC50 [1] [µM] | decrease of LDL-C [2] [%] | increase of HDL-C [2] [%] |
| --- | --- | --- | --- |
| COc1ccc(-c2ccc(C(=O)O)cc2C)cc1-c1ccc(C(F)(F)F)cc1[C@@H]1CC[C@H]2[C@@H](c3ccnc(C(F)(F)F)c3)NC(=O)N12 [Example 19, 4′-methoxy-2-methyl-2″-{(1R,5S,7aS)-3-oxo-1-[2-(trifluoromethyl)pyridin-4-yl]hexahydro-1H-pyrrolo[1,2-c]imidazol-5-yl}-4″-(trifluoromethyl)-1,1′:3′,1″-terphenyl-4-carboxylic acid] | 4.87 |  |  |
| COc1ccc(-c2ccc(C(=O)O)cc2C)cc1-c1cnc(C(F)(F)F)cc1[C@@H]1CC[C@H]2[C@@H](c3cc(C(F)(F)F)cc(C(F)(F)F)c3)NC(=O)N12 [Example 20, 3′-[4-{(1R,5S,7aS)-1-[3,5-bis(trifluoromethyl)phenyl]-3-oxohexahydro-1H-pyrrolo[1,2-c]imidazol-5-yl}-6-(trifluoromethyl)pyridin-3-yl]-4′-methoxy-2-methylbiphenyl-4-carboxylic acid] | 1.57 |  |  |
| COc1ccc(-c2ccc(C(=O)O)cc2C)cc1-c1ccc(C(F)(F)F)cc1[C@@H]1CC[C@H]2[C@@H](c3cc(C(F)(F)F)cc(C(F)(F)F)c3)NS(=O)(=O)N12 [Example 22, 2″-{(3R,3aS,6S)-3-[3,5-bis(trifluoromethyl)phenyl]-1,1-dioxidohexahydropyrrolo[1,2-b][1,2,5]thiadiazol-6-yl}-4′-methoxy-2-methyl-4″-(trifluoromethyl)-1,1′,:3′,1″-terphenyl-4-carboxylic acid] | 0.984 |  |  |
| COc1ccc(C2CCC(C(=O)O)CC2)cc1-c1ccc(C(F)(F)F)cc1[C@@H]1CC[C@H]2[C@@H](c3cc(C(F)(F)F)cc(C(F)(F)F)c3)NS(=O)(=O)N12 (stereo partly drawn) [Example 23, 4-[2′-{(3R,3aS,6S)-3-[3,5-bis(trifluoromethyl)phenyl]-1,1-dioxidohexahydropyrrolo[1,2-b][1,2,5]thiadiazol-6-yl}-6-methoxy-4′-(trifluoromethyl)biphenyl-3-yl]cyclohexanecarboxylic acid] | 0.268 |  |  |
| COc1ncc(-c2ccc(C(=O)O)cc2C)cc1-c1ccc(C(F)(F)F)cc1[C@@H]1CC[C@H]2[C@@H](c3cc(F)cc(C(F)(F)F)c3)NS(=O)(=O)N12 [Example 24, 4-{5-[2-{(3R,3aS,6S)-3-[3-fluoro-5-(trifluoromethyl)phenyl]-1,1-dioxidohexahydropyrrolo[1,2-b][1,2,5]thiadiazol-6-yl}-4-(trifluoromethyl)phenyl]-6-methoxypyridin-3-yl}-3-methylbenzoic acid] | 1.26 |  |  |
| COc1ccc(CCC(=O)O)cc1-c1ccc(C(F)(F)F)cc1[C@@H]1CC[C@H]2[C@@H](c3cc(F)cc(C(F)(F)F)c3)NS(=O)(=O)N12 [Example 25, 3-[2′-{(3R,3aS,6S)-3-[3-fluoro-5-(trifluoromethyl)phenyl]-1,1-dioxidohexahydropyrrolo[1,2-b][1,2,5]thiadiazol-6-yl}-6-methoxy-4′-(trifluoromethyl)biphenyl-3-yl]propanoic acid] | 3.12 |  |  |
| COc1cc(F)c(C(C)C)cc1-c1ccc(C(F)(F)F)cc1CN1C(=O)O[C@H](c2cc(C(F)(F)F)cc(C(F)(F)F)c2)[C@@H]1C [anacetrapib] |  | 40 | 138 |
